In patent EP1536235A2, “Method for detecting environmental pollution using 14-3-3 proteins as biomarkers” (MÜLLER, Werner E. G., priority 1998, dated 1999):

Experiments:
14-3-3 [1] = assay: Northern blotting of 14-3-3 mRNA after exposure of the sponge; type: in vivo, G. cydonium; conditions: PCB 118 2 µg/g, 17 beta-Östradiol 20 ng/g, alone or in combination; 17 beta-Östradiol = 100% reference value; incubation 3 or 6 days; not detectable without agents
From the text: (§1) Für eine Quantifizierung der mRNA für 14-3-3 mittels Northern-Blotting Verfahren werden Gensonden hergestellt, die von den konservierten Anfangsbereichen [aa45-aa57] bis zu den konservierten Endbereichen [aa214-aa234] des 14-3-3 Proteins reichen (ABB. 2). Als Methodik wird die PCR-Klonierung eingesetzt. Die erhaltenen APPROX 500 bp langen Sonden eignen sich erfahrungsgemäß gut für Northern-Blotting-Untersuchungen.
(§2) Die quantitative Auswertung der Signale kann zum Beispiel mit Hilfe des Chemilumineszenz-Verfahrens (Stanley und Kricka, Bioluminescence and chemiluminescence: current status. John Wiley & Sons, New York, 1990) in Verbindung mit einem Phospholmager (z. B. GS-525 Molecular Imager der Firma Bio-Rad) erfolgen; Dinatrium 2-Chlor-5-(4-methoxyspiro 1,2-dioxetane-3,2'-(5'-chlor)-tricyclo[3.3.1.13,7]decan-4-yl)phenyl-phosphat (CDP) wird hierfür als Substrat angewandt.
Durchfiihrung: • (a) Exposition von G. cydonium gegenüber PCB 118: 1 ml PCB 118 (0.1 mg/ml in Kornöl) wurde in […] Schwammgewebe injiziert. Die Proben wurden in Seewasser für bis zu 6 Tage in 20 1 Aquarien bei 17°C unter kontinuierlicher Belüftung inkubiert; das Wasser wurde einmal am Tag 2 gewechselt. Aliquote Teile des Gewebes (ungefähr je 200 mg) wurden zum Zeitpunkt Null oder nach einer Inkubationszeit von 0.5, 1, 3, 5 und 6 Tagen entnommen. […]

14-3-3 Protein = assay: ELISA quantification of 14-3-3 protein in liver after i.p. injection; conditions: liver after 5 days, Kontrolle 0,12
Method: Vorgegangen wurde hierbei nach den Instruktionen des Herstellers. Überschüssige Maleimidgruppen auf den Platten wurden durch einstündige Inkubation der Platten mit einer Cysteinlösung (10 µg/ml) blockiert.
Die Durchführung erfolgt in folgenden Schritten: • Variante 1 • 1a. Inkubation der Streptavidin-beschichteten Mikrotiterplatten mit dem Biotingekoppelten Peptid. • 2a. Zugabe von 100 µl Extrakt aus den untersuchten Tiergeweben in die Wells nach Bindung des Peptids über Biotin und Streptavidin. Oder: • 1a. Inkubation der Extrakte aus den untersuchten Tiergeweben mit dem Biotingekoppelten Peptid. • 2a. Zugabe von 100 µl der Inkubationsmischungen nach Bindung des Biotin-Peptids an 14-3-3 in die Wells. • 3. Waschen. • 4. Quantifizierung der Peptid-14-3-3 Komplexe über markierte Antikörper. Als Markierung kann zum Beispiel die alkalische Phosphatase verwendet werden; als Substrat zum Nachweis dient dann 5-Brom-4-Chlor-3-Indolylphosphat/Nitroblau-Tetrazolium. • 5. Detektion mittels eines ELISA-Platten-Readers. • Variante 2 • 1. Zugabe von 100 µl Extrakt in die Wells der Mikrotiterplatten mit dem gekoppelten Peptid und Inkubation. • 2. Waschen. • 3. Quantifizierung der Peptid-14-3-3 Komplexe über markierte Antikörper (siehe Variante 1). • 4. Detektion mittels eines ELISA-Platten-Readers.
Die in Tabelle 1 angegebenen Mengen an PCB 77, PCB 118 und PCB 153 wurden nach Auflösung in Kornöl in Klieschen (Limanda limanda) injiziert. […] Nach den angegebenen Zeiträumen wurde den Tieren die Leber entnommen und sofort eingefroren. Die Bestimmung des Gehalts an 14-3-3 in den Lebern erfolgte nach Homogenisation durch Mörsern der gefrorenen Gewebeproben in dem dreifachen Volumen an Phosphat-Puffer mit 1 mM EDTA und 1 mM Phenylmethylsulfonylfluorid.

14-3-3 [2] = assay: Keeping experiments with PCB 118: 14-3-3 expression by Northern and Western blotting; type: in vivo, Geodia cydonium; conditions: 2 µg PCB 118/g wet weight, 0,5 to 6 days; Northern (mRNA) and Western blotting (protein)
From the text: as §1, §2
Der Nachweis der Expression von 14-3-3 auf Protein-Ebene erfolgt mittels Antikörper. Entweder können kommerzielle (z. B. von der Firma Calbiochem/Oncogene) oder gegen das rekombinante Invertebraten-Protein 14-3-3 aus Geodia cydonium gezogene Antikörper eingesetzt werden. Zur Quantifizierung der 14-3-3 Proteine werden Western-Blots mit Extrakten des Bioindikators hergestellt. Die Signale können wieder unter Anwendung des Chemilumineszenz-Verfahrens quantifiziert werden. Die Gewebeextrakte können z. […]

[3] = i.p. 0.03 mg PCB pro kg Limanda limanda

| SMILES | Niveau der mRNA von 14-3-3 (14-3-3 [1]) [%] | 14-3-3 Protein (OD-Einheit) (14-3-3 Protein; [3]) | also measured |
| --- | --- | --- | --- |
| C[C@]12CC[C@@H]3c4ccc(O)cc4CC[C@H]3[C@@H]1CC[C@@H]2O [17 beta-Östradiol] | 100 | – | – |
| Clc1ccc(-c2ccc(Cl)c(Cl)c2)cc1Cl [PCB77, PCB 77] | – | 0,97 OD-Einheit | – |
| Clc1cc(Cl)c(-c2cc(Cl)c(Cl)cc2Cl)cc1Cl [PCB153, PCB 153] | – | 0,81 OD-Einheit | – |
| [Cd] [Cadmium] | – | – | 14-3-3 Protein (OD-Einheit) (14-3-3 Protein; Cadmium 0,01 mg/kg i.p.): 0,30 OD-Einheit; 14-3-3 Protein (OD-Einheit) (14-3-3 Protein; Cadmium 0,1 mg/kg i.p.): 0,98 OD-Einheit; 14-3-3 Protein (OD-Einheit) (14-3-3 Protein; Cadmium 0,03 mg/kg i.p.): 0,75 OD-Einheit |
| Clc1ccc(-c2cc(Cl)c(Cl)cc2Cl)cc1Cl [PCB 118] | 30 | 0,74 OD-Einheit | Expression des 14-3-3-Gens (14-3-3 [2]): von nicht nachweisbar auf sehr hohe Werte induziert |
